Experimental data from patent US20020098211A1, “ANTIMICROBIAL AGENT AND USES THEREOF, IN PARTICULAR IN COSMETICS AND DERMATOLOGY” (priority 1998, published 2002).

Test system: Enterococcus faecalis (American Type Culture Collection No. 33186)
Test: Antimicrobial (preservation) challenge test, count of surviving microorganisms in the inoculated product
Method: Bacterium: Enterococcus faecalis (American Type Culture Collection No. 33186), cultured on soybean Trypticase Yeast: Candida albicans (American Type Culture Collection No. 10231), cultured on Sabouraud.
Inoculum preparation: tryptone-salt diluent
Counting: Eugon LT100 agar broth
On the evening before the test, each microbial strain is plated out on the appropriate agar medium and incubated in an oven at 35° C.
On the day of the test, 20 grams of the product are weighed out in a sterile pill box. Inoculation is carried out at a concentration of 1% using a microbial suspension with a titre of 108 microorganisms per ml: a concentration of 106 is obtained in the product. The contaminated sample is incubated in an oven at 22° C.
After incubation for 7 days, 1 gram of product is taken and tenfold dilutions are carried out in Eugon LT100 broth, and these dilutions are plated out on the surface of Petri dishes containing Eugon LT100 agar. The dishes are incubated at 35° C.
The colonies are counted on the dishes containing more than 20 and less than 200 colonies.

| Structure (SMILES) | number of microorganisms per gram of preparation, remaining in the product after 7 days of contact (Table 5, single agent at 3%) | also measured |
| --- | --- | --- |
| CC(O)CCO (stereo not shown) [Butanediol, butanediol] | 4.0 × 10^5 microorganisms per gram of preparation |  |
| CCCCCCC(O)CO (stereo not shown) [Octanediol, 1,2-octanediol] |  | number of microorganisms per gram of preparation, remaining in the product after 7 days of contact (Table 5, single agent at 0.25%): 3.7 × 10^5 microorganisms per gram of preparation |
| CCCC(O)CO (stereo not shown) [pentanediol, 1,2-pentanediol] | 2.3 × 10^5 microorganisms per gram of preparation |  |
| CCCCCCCC(=O)OC(C)C(=O)OC(C)C(=O)[O-].[Na+] (stereo not shown) [Sodium capryl lactyl lactylate, sodium capryl lactyl lactylate] |  | number of microorganisms per gram of preparation, remaining in the product after 7 days of contact (Table 5, single agent at 1%): 1.5 × 10^4 microorganisms per gram of preparation |
